Where two headings read alike, the source gives them in different places.
Experiments:
KRas = KRas (Homo sapiens (Human), UniProt P01116); test: KRas GDP HTRF (BODIPY-GDP exchange TR-FRET); type: biochemical
Method in brief: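 Inhibition of SOS1-mediated exchange of BODIPY-GDP on KRAS G12D, started with 3 nM recombinant human SOS1 and 300 nM BODIPY-GDP and read after 60 min. TR-FRET excitation 337 nm, ratio 520/490 nm ×10,000. IC50 from 4-parameter Hill fit of normalized data.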

KRas(G12V) = KRas(G12V) (Homo sapiens (Human), UniProt P01116, G12V); test: KRas(G12V) GDP HTRF (BODIPY-GDP exchange TR-FRET); type: biochemical
SW480 cells = test: SW480 proliferation assay; type: cell-based; details: read-out: SW480 Prolif IC50 (G12V)
PC-9 cells = test: PC9 proliferation assay; type: cell-based, human; details: read-out: PC9 Prolif IC50 (G12V)

Chain of KRas(G12V) (P01116-2 other isoform, or with tags, fused parts or gaps G12V): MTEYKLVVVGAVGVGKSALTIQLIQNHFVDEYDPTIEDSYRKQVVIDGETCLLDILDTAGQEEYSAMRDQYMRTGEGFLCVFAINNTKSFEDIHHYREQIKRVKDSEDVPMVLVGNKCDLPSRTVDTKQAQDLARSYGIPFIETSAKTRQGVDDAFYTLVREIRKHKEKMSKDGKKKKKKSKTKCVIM
Chain of KRas (P01116-2 other isoform, or with tags, fused parts or gaps): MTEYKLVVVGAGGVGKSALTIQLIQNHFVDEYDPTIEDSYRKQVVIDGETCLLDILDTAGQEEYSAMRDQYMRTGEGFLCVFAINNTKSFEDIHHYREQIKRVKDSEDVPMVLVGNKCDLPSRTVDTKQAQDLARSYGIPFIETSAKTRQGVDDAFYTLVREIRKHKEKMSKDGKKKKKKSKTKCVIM

| SMILES | IC50 (KRas) [nM] | IC50 (KRas(G12V)) [nM] | IC50 (SW480 cells; Homo sapiens, SW480, SW480) [nM] | IC50 (PC-9 cells; Homo sapiens, PC-9, PC9) [nM] | IC50 (SW480 cells; SW480) [nM] | IC50 (PC-9 cells; PC9) [nM] |
| --- | --- | --- | --- | --- | --- | --- |
| Cc1cc(N)nc(-c2c(Cl)c3c4c(nc(OC[C@@]56CCCN5C[C@H](F)C6)nc4c2F)N([C@@H](c2cccnc2N)C2CC2)CCO3)c1C(F)(F)F (atropisomer, axis not shown; (aS)) [Example 86, 6-((R)-4-((R)-(2-aminopyridin-3-yl)(cyclopropyl)methyl)-8-chloro-10-fluoro-2-(((2R,7aS)-2-fluorotetrahydro-1H-pyrrolizin-7a(5H)-yl)methoxy)-5,6-dihydro-4H-[1,4]oxazepino[5,6,7-de]quinazolin-9-yl)-4-methyl-5-(trifluoromethyl)pyridin-2-amine] | 0.44 | 0.15 | 4.9 | 3700 |  |  |
| Cc1cc(N)nc(-c2c(Cl)c3c4c(nc(OC[C@@H]5CC[C@H]6COCCN65)nc4c2F)N([C@H](C)c2cccnc2N)CCO3)c1C(F)(F)F (atropisomer, axis not shown; (aS)) [Example 87a, 6-((R)-4-((R)-1-(2-aminopyridin-3-yl)ethyl)-8-chloro-10-fluoro-2-(((6S,8aS)-hexahydro-1H-pyrrolo[2,1-c][1,4]oxazin-6-yl)methoxy)-5,6-dihydro-4H-[1,4]oxazepino[5,6,7-de]quinazolin-9-yl)-4-methyl-5-(trifluoromethyl)pyridin-2-amine] | 0.106 | 0.087 | 2.5 | 6300 |  |  |
| Cc1cc(N)nc(-c2c(Br)c3c4c(nc(OC[C@@]56CCCN5C[C@H](F)C6)nc4c2F)N([C@H](C)c2cccnc2N)CCO3)c1C(F)(F)F (atropisomer, axis not shown; (aS)) [Example 88, (R)-6-(4-((R)-1-(2-aminopyridin-3-yl)ethyl)-8-bromo-10-fluoro-2-(((2R,7aS)-2-fluorotetrahydro-1H-pyrrolizin-7a(5H)-yl)methoxy)-5,6-dihydro-4H-[1,4]oxazepino[5,6,7-de]quinazolin-9-yl)-4-methyl-5-(trifluoromethyl)pyridin-2-amine] | 0.12 | 0.05 | 1.5 | 3000 |  |  |
| CCO[C@H]1CN2CCC[C@@]2(COc2nc3c4c(c(Cl)c(-c5nc(N)cc(C)c5C(F)(F)F)c(F)c4n2)OCCN3[C@H](C)c2cccnc2N)C1 (atropisomer, axis not shown; (aS)) [Example 89, 6-((R)-4-((R)-1-(2-aminopyridin-3-yl)ethyl)-8-chloro-2-(((2R,7aS)-2-ethoxytetrahydro-1H-pyrrolizin-7a(5H)-yl)methoxy)-10-fluoro-5,6-dihydro-4H-[1,4]oxazepino[5,6,7-de]quinazolin-9-yl)-4-methyl-5-(trifluoromethyl)pyridin-2-amine] | 0.17 | 0.075 | 7.2 | 2400 |  |  |
| Cc1cc(N)nc(-c2c(Cl)c3c4c(nc(OC[C@@H]5CC[C@H]6COC(F)(F)CN56)nc4c2F)N([C@H](C)c2cccnc2N)CCO3)c1C(F)(F)F (atropisomer, axis not shown; (aS)) [Example 91a, 6-((R)-4-((R)-1-(2-aminopyridin-3-yl)ethyl)-8-chloro-2-(((6S,8aS)-3,3-difluorohexahydro-1H-pyrrolo[2,1-c][1,4]oxazin-6-yl)methoxy)-10-fluoro-5,6-dihydro-4H-[1,4]oxazepino[5,6,7-de]quinazolin-9-yl)-4-methyl-5-(trifluoromethyl)pyridin-2-amine] | 0.9 | 0.29 | 3.4 | 20000 |  |  |
| Cc1cc(N)nc(-c2c(Cl)c3c4c(nc(OC[C@@]56CCCN5C[C@H](F)C6)nc4c2F)N([C@H](C)c2nccnc2N)CCO3)c1C(F)(F)F (atropisomer, axis not shown; (aS)) [Example 101, 3-((R)-1-((R)-9-(6-amino-4-methyl-3-(trifluoromethyl)pyridin-2-yl)-8-chloro-10-fluoro-2-(((2R,7aS)-2-fluorotetrahydro-1H-pyrrolizin-7a(5H)-yl)methoxy)-5,6-dihydro-4H-[1,4]oxazepino[5,6,7-de]quinazolin-4-yl)ethyl)pyrazin-2-amine] | 0.0616 | 0.06 | 5.7 | 830 |  |  |
| Cc1cc(N)nc(-c2c(Cl)c3c4c(nc(OC[C@@H]5CC[C@H]6COCCN65)nc4c2F)N([C@H](C)c2cncnc2N)CCO3)c1C(F)(F)F (atropisomer, axis not shown; (aS)) [Example 102a, 5-((R)-1-((R)-9-(6-amino-4-methyl-3-(trifluoromethyl)pyridin-2-yl)-8-chloro-10-fluoro-2-(((6S,8aS)-hexahydro-1H-pyrrolo[2,1-c][1,4]oxazin-6-yl)methoxy)-5,6-dihydro-4H-[1,4]oxazepino[5,6,7-de]quinazolin-4-yl)ethyl)pyrimidin-4-amine] | 0.115 | 0.094 | 19 | 2200 |  |  |
| Cc1cc(N)nc(-c2c(Cl)c3c4c(nc(OC[C@@]56CCCN5C[C@H](F)C6)nc4c2F)N([C@H](C)c2cccnc2N)CCO3)c1C(F)(F)F (atropisomer, axis not shown; (aS)) [Example 107, (S)-6-(4-((R)-1-(2-aminopyridin-3-yl)ethyl)-8-chloro-10-fluoro-2-(((2R,7aS)-2-fluorotetrahydro-1H-pyrrolizin-7a(5H)-yl)methoxy)-5,6-dihydro-4H-[1,4]oxazepino[5,6,7-de]quinazolin-9-yl)-4-methyl-5-(trifluoromethyl)pyridin-2-amine] | 240 | 90 |  |  | 560 | 4000 |
| C[C@H](c1cccnc1N)N1CCOc2c(Cl)c(-c3nc(N)ccc3C(F)(F)F)c(F)c3nc(OC[C@@]45CCCN4C[C@H](F)C5)nc1c23 (atropisomer, axis not shown; (aS)) [Example 108a, 6-((R)-4-((R)-1-(2-aminopyridin-3-yl)ethyl)-8-chloro-10-fluoro-2-(((2R,7aS)-2-fluorotetrahydro-1H-pyrrolizin-7a(5H)-yl)methoxy)-5,6-dihydro-4H-[1,4]oxazepino[5,6,7-de]quinazolin-9-yl)-5-(trifluoromethyl)pyridin-2-amine] | 0.2 | 0.06 | 2 | 1400 |  |  |
| C[C@H](c1cccnc1N)N1CCOc2c(Cl)c(-c3nc(N)cc4ccccc34)c(F)c3nc(OC[C@@]45CCCN4C[C@H](F)C5)nc1c23 (atropisomer, axis not shown; (aS)) [Example 113a, 1-((R)-4-((R)-1-(2-aminopyridin-3-yl)ethyl)-8-chloro-10-fluoro-2-(((2R,7aS)-2-fluorotetrahydro-1H-pyrrolizin-7a(5H)-yl)methoxy)-5,6-dihydro-4H-[1,4]oxazepino[5,6,7-de]quinazolin-9-yl)isoquinolin-3-amine] | 0.2 | 0.09 | 2.8 | 7500 |  |  |
| Cc1cc(N)nc(-c2c(Cl)c3c4c(nc(OC[C@@H]5CC[C@H]6COCCCN65)nc4c2F)N([C@H](C)c2cccnc2N)CCO3)c1C(F)(F)F (atropisomer, axis not shown; (aS)) [Example 120a, 6-((R)-4-((R)-1-(2-aminopyridin-3-yl)ethyl)-8-chloro-10-fluoro-2-(((7S,9aS)-hexahydro-1H,3H-pyrrolo[2,1-c][1,4]oxazepin-7-yl)methoxy)-5,6-dihydro-4H-[1,4]oxazepino[5,6,7-de]quinazolin-9-yl)-4-methyl-5-(trifluoromethyl)pyridin-2-amine] | 0.2 | 0.07 | 28 | 2500 |  |  |

From patent US20240383915A1, “OXAZEPINE COMPOUNDS AND USES THEREOF IN THE TREATMENT OF CANCER” (Genentech, Inc., priority 2021, published 2024)
